{"source": "patent US20260137711A1", "about": "“COMBINATION THERAPY FOR CANCER” (NATIONAL UNIVERSITY OF IRELAND, GALWAY, priority 2022, published 2026)", "key": {"MCF10A cells": {"tested_on": "MCF10A cells", "assay": "Long-term cell proliferation assay, crystal violet staining", "assay_type": "cell-based, human", "settings": "7 days", "protocol": "(a and b) MCF10A cells were plated at equal low density and then either mock treated or treated with 31 nM BI-1347, in the presence or absence of XL413 at a doses of (a) 1.25 μM or (b) 10 μM over a 7 day period. Representative images of crystal violet-stained cells are shown alongside quantitation of crystal violet intensity normalised to the untreated control.\nBriefly, MCF10A cells were mock-treated or treated in the continued presence of a dual-specificity CDK8/CDK19 inhibitor, BI-1347, in the presence or absence of XL413 at two different concentrations (1.25 μM and 10 μM) for a 7-day period. Relative cell proliferation was estimated by staining cells with crystal violet and measuring staining intensities. […] Importantly the addition of BI-1347 to XL413 caused a further reduction in cell number with staining intensity decreasing by 70% and 95% respectively.\nMCF10A cells were seeded at 4,000 cells per well of a 6 well plate and after 24 hours were treated with inhibitors before being incubated for 7 days at 37° C. with 5% CO2. Media was removed from the cells which were then washed with PBS and air dried before being fixed with 100% methanol for 1 hour. Following removal of methanol the plates were air-dried, stained with crystal violet staining solution (0.2% crystal violet, 25% methanol) for 1 hour at room temperature, washed with ddH2O and air-dried. Plates were scanned using a HP Scanjet 4050, to generate images of crystal violet stained cells, and crystal violet staining intensity was acquired using the Odyssey infrared imaging system and Image Studio software (LI-COR Biosciences)."}, "MCF10A EditR cells": {"tested_on": "MCF10A EditR cells", "assay": "Pooled genome-wide CRISPR/Cas9 screen with XL413 (cell proliferation, sgRNA abundance, MAGeCK beta scores)", "assay_type": "cell-based, human", "settings": "for XL413 beta score: 1.25 μM XL413, day 0 to day 24; for Differential beta score (Treatment − Control): XL413-treated minus untreated", "protocol": "Supplemental FIG. 1: CRISPR/Cas9 screen: Cell proliferation curves, summary of sgRNA coverage, and genes of interest identified (a-c) Proliferation curves of MCF10A EditR cells expressing sgRNAs from CRISPR library modules I, II and III in the absence (untreated) or presence of 1.25 μM XL413. Data is from three independent counts of each sample ±standard deviation (SD). (d) DNA extracted from samples of the CRISPR/Cas9 screen, which were harvested on day 0 and after 20 or 24 days of growth in the absence (untreated) or presence of 1.25 μM XL413, respectively, was analysed by next generation sequencing. Sequence data was mapped to a CELLECTA genome-wide sgRNA reference library using the MAGeCKFlute pipeline. (d) The table summarises the total and missing number of sgRNAs, the calculated % sgRNA coverage and the number of missing genes.\nA genome-wide CRIPSR/Cas9 loss of function screen identifies genes that affect proliferation rate in response to a CDC7 inhibitor In order to identify genes that change the rate of proliferation when DNA synthesis is mildly limited by CDC7 inhibition, we performed a CRISPR/Cas9 genome-wide knockout screen as outlined in FIG. 1a. Briefly, MCF10A EditR cells that stably express Cas9 were transduced with a lentiviral-sgRNA library targeting approximately 19,000 coding genes and then were either untreated or treated with 1.25 μM of selective ATP competitive CDC7 inhibitor, XL413 (Koltun et al., 2012). […] Next generation sequencing was then used to determine sgRNA abundance at day 0, day 20 untreated and day 24 XL413 treated cells. […] CRISPR/Cas9-mediated loss of function of genes involved in supporting proliferation in untreated cells or in response to CDC7 inhibition is expected to result in a decreased relative abundance of the corresponding sgRNAs in the cell population. […] When the genes were ranked according to the magnitude of the effect, CDK8, a gene that expresses a component of the CDK8/CDK19-CCNC-MED12-MED 13 mediator complex kinase-module (Dannappel et al., 2019; Fant and Taatjes, 2019; Menzl et al., 2019), came out as the top hit (FIG. 1b and Table 1, ranked 19012 out of 19012 genes).\nMCF10A EditR cells (120×10^6 per module) were transduced with individual modules (Modules I, II and III) in the presence of 5 µg/ml polybrene at a Multiplicity of Infection (MoI) of 0.4 achieving ˜600-fold guide representation. After 24 hours, transduced cells were harvested, replated and selected with puromycin ([…]) for 6 days. Puromycin resistant cells were harvested and a sample of ˜30×10^6 cells taken for analysis by next generation sequencing (NGS) at the start of the screen (day 0). The remaining puromycin resistant cells from each module were cultured independently from each other in untreated and XL413 treated ([…]) experimental branches. Throughout the screen cell proliferation and viability were determined by cell counting on a LunaII automated cell counter (Logos Biosystems) using trypan blue exclusion. Cells were cultured, harvested, reseeded and retreated every 4 days in order to maintain ˜600-fold guide representation. Finally at day 20 for the untreated branch and at day 24 for the XL413-treated branche, cells were harvested and a sample of ˜30×10^6 cells taken for analysis by NGS.\nFASTQ files obtained by NGS were analysed using the MAGeCKFlute pipeline (Wang et al., 2019) as outlined below. MAGeCK was used to perform adaptor trimming, mapping of trimmed sgRNAs and associated sequencing reads to the CELLECTA sgRNA reference library, and a quality control assessment of the sequencing quality and screen data. Following quality control inspection, sgRNA read count data from the day 0 vs day 20 untreated and day 0 vs day 24 XL413-treated (1.25 μM) conditions were modelled using a negative-binomial distribution by MAGeCK-MLE to calculate a beta score for each targeted gene. Negative control sgRNAs in the CELLECTA library were used by MAGeCK-MLE to normalize the read counts between samples. […]"}}}
{"smiles": "Cl.O=c1[nH]c([C@@H]2CCCN2)nc2c1oc1ccc(Cl)cc12", "note": "[XL413]", "values": [{"measurement": "relative intensity reduction (crystal violet)", "setting": "MCF10A cells; 1.25 μM XL413 alone", "value": "~15", "unit": "%"}, {"measurement": "relative intensity reduction (crystal violet)", "setting": "MCF10A cells; 10 μM XL413 alone", "value": 70, "unit": "%"}, {"measurement": "cell proliferation over the course of the screen", "setting": "MCF10A EditR cells; 1.25 μM XL413, cells expressing sgRNA library", "value": "only mildly suppressed"}, {"measurement": "XL413 beta score", "setting": "MCF10A EditR cells; gene CCNC targeted by sgRNAs", "value": "−1.0759"}, {"measurement": "Differential beta score (Treatment − Control)", "setting": "MCF10A EditR cells; gene CCNC targeted by sgRNAs", "value": "−0.3602"}, {"measurement": "XL413 beta score", "setting": "MCF10A EditR cells; gene CDK8 targeted by sgRNAs", "value": "−1.6094"}, {"measurement": "Differential beta score (Treatment − Control)", "setting": "MCF10A EditR cells; gene CDK8 targeted by sgRNAs", "value": "−1.4391"}, {"measurement": "XL413 beta score", "setting": "MCF10A EditR cells; gene CDK19 targeted by sgRNAs", "value": "−0.2393"}, {"measurement": "Differential beta score (Treatment − Control)", "setting": "MCF10A EditR cells; gene CDK19 targeted by sgRNAs", "value": 0.0034}, {"measurement": "XL413 beta score", "setting": "MCF10A EditR cells; gene MED12 targeted by sgRNAs", "value": "−0.8276"}, {"measurement": "Differential beta score (Treatment − Control)", "setting": "MCF10A EditR cells; gene MED12 targeted by sgRNAs", "value": 0.0928}, {"measurement": "XL413 beta score", "setting": "MCF10A EditR cells; gene MED13 targeted by sgRNAs", "value": 0.0939}, {"measurement": "Differential beta score (Treatment − Control)", "setting": "MCF10A EditR cells; gene MED13 targeted by sgRNAs", "value": 0.0062}, {"measurement": "XL413 beta score", "setting": "MCF10A EditR cells; gene RIF1 targeted by sgRNAs", "value": "−0.0162"}, {"measurement": "Differential beta score (Treatment − Control)", "setting": "MCF10A EditR cells; gene RIF1 targeted by sgRNAs", "value": 0.7442}]}
